This note sets out measurements from patent US20090176701A1, “Anti-microbial agents that interact with the complement system” (priority 2005, published 2009).

What all share (format): cell-based
In test [1] the test system is E. coli O18:K1:H7. The test can be described thus: Bacterial killing assay in 10% blood. The arrangement: CFU / CFU (Range) / CFU 1 hour / CFU 3 hours / CFU 5 hours / CFU 3 hour: scale not given here. The note with it: for activity against O18ac:K1:H7 E. coli strain in blood / bacterial killing activity (effect on bacterial growth) / CFU / CFU 1 hour / CFU 3 hours / CFU 5 hours: 10% blood; for activity against O18ac:K1:H7 E. coli strain in blood: concentrations tested 10 nM to 3 μM, peptide #5 compared to peptide #3; for bacterial killing activity (effect on bacterial growth): FIGS. 1 and 2, TFPI 5 μM, cathepsin G 400 nM; for CFU 1 hour / CFU 3 hours / CFU 5 hours: Table 5, 3000 CFU; for CFU 1 hour: blood 3.4; for CFU 3 hours: blood 4.2; for CFU 5 hours: blood 5.1; for bacterial survival (outgrowth of bacterial colonies): FIG. 11d, E. coli O18ac:K1:H7 in diluted whole blood. The procedure:
TFPI was incubated with α-thrombin, plasmin, elastase and cathepsin G in 10% blood and tested for bacterial killing activity against E. coli O18:K1:H7 as follows. Recombinant TFPI at 5 μM (unless indicated otherwise), was treated with plasmin (100 nM, lane 3) and α-thrombin (100 nM, lane 7; 1 μM, lane 8) (A), elastase (100 nM, lanes 3 and 4) (B), and cathepsin G (100 nM, lane 4; 1 μM, lanes 5, 6 and 7) (C) in a total volume of 180 μl. The reaction contained TFPI diluted in RPMI 1640 without phenol red, 25 mM Hepes, pH 7.5 (RPMI), 3000 CFU E. coli O18:K1:H7 in 40 μl PBS, and diluted enzyme in 20 μl RPMI. The volume was adjusted with RPMI. The samples were pre-incubated for 15-30 minutes before the addition of anti-coagulant-free fresh blood to a final volume of 200 μl. Controls were 10% blood in RPMI, TFPI at 1, 2 and 5 μM, and the enzymes alone at the respective concentrations. The samples were incubated for 4 hours at 37° C. with 5% CO2 in a humidified incubator and serial dilutions plated on Tryptase soy agar plates. The number of bacterial colonies was determined after overnight incubation at 37° C. All experimental conditions are run in duplicate. The data represent the average colony number.
The 18 μl aliquots were diluted to 10 μM TFPI with 445 μl RPMI 1640 without phenolred, 25 mM Hepes, pH 7.5 (RPMI) and assayed at a final concentration of 5 μM in 200 μl reactions containing 3000 CFU E. coli in 40 μl PBS, 10% non-coagulated blood, and adjusted to the final volume with RPMI. Negative controls were 10% blood in RPMI, TFPI at 5 μM and cathepsin G at 400 nM. Anti-coagulant free blood was freshly drawn and added to the reaction as the last component. The samples were manipulated as described above.
Peptides were designed to test for bacterial killing activity localized in the C-terminal domain of TFPI. Activity was measured against Gram negative (E coli O18:K1:H7. ATCC 700973) bacteria in the presence of 10% blood as described above. Controls were RPMI with 10% blood and 100 nM Tifacogin. The biological activity was determined from the reduction of bacterial colonies, as above.
The three peptides #1, #2, & #3 were diluted in H2O to 10 fold their final assay concentration and incubated with bacteria for 4 hours, at the final concentrations of 3 μM, 300 nM 100 nM and 10 nM. E. coli was used at 3000 CFU/200 μl. Surviving colony numbers were determined as described in Example 1. […] Full-length TFPI has no activity against Gram negative bacteria in these assays at the concentrations tested.
Time-dependency: Peptides were incubated with 3000 CFU E. coli O18:K1:H7 at the indicated final concentrations in the presence of 10% blood in three parallel 200 μl reactions as described above. RPMI with 10% blood was used as negative control. After incubation for 1, 3, or 5 hours samples were assayed for the effect on bacterial survival by plating serial dilutions onto agar plates. […] The effect of peptides on bacterial survival increases over the time-span studied.
In these experiments, variable concentrations of E. coli O18:K1:H7 (3×10^3, 3×10^4 or 3×10^5 CFU/200 μl) were challenged with either 3 μM or 100 nM peptide #3 in RPMI/10% blood, and incubated for 3 or 5 hours before dilution and plating. Briefly, the bacteria were diluted to the indicated CFU in 40 μl PBS, the reactions assembled at a final volume of 200 μl as above, and incubated at 37° C. Serial dilutions of the reactions were plated and the colony number determined after overnight incubation. […] At 5 hours no effect on the high CFU culture was discernable, indicating a titration of the killing activity and the high CFU culture exceeding the capacity.

For test [2], the system named is E. coli O18:K1:H7. The test can be described thus: Bacterial killing assay without blood (growth medium). The conditions noted are these: no blood; for CFU (Range): Table 4, growth medium 6.2. The procedure:
Peptides #1, #3 and #4 were tested for their activity without blood on E. coli O18:K1:H7. The peptides were assayed at 3 μM. The same blood and TFPI controls were included as in Experiment I.

For test [3], the system named is E. coli O18:K1:H7. Briefly: Bacterial killing assay in serum or plasma (complement dependence). The note with it: FIG. 8D; peptides serially diluted to 300 nM, and 30 nM in serum.
For a further test, the system named is IL-6 secretion. The test can be described thus: IL-6 induction assay in diluted whole blood in the presence of LPS. The note with it: FIG. 11c; peptide and LPS dose-dependent. The procedure: The ability of TFPI to induce IL-6 secretion in the presence of LPS was tested using TFPI and TFPI analogs, including: (i) TFPI1-161, having just residues 1-161 of TFPI; (ii) TFPI with mutant K1; (iii) TFPI with mutant K2; (iv) TFPI with mutants K1 and K2.
When diluted, freshly drawn whole blood is incubated with LPS derived from the cell wall of Gram-negative bacteria, a cytokine cascade is induced within a few hours.
A peptide consisting of the 22 C-terminal amino acids of TFPI (i.e. SEQ ID NO:3) was tested in an IL-6 assay in the presence of LPS. […] Thus this peptide appears to be able to neutralize the endotoxin activity of LPS.

The mark [4] stands for this setting: Table 1, peptide 300 nM, 3000 CFU/200 μl, 4 hours, blood control 5.1.
Where [5] appears, read: Table 1, peptide 3 μM, 3000 CFU/200 μl, 4 hours, blood control 5.1.
Setting [6] is: Table 4, in blood, peptide 3 μM, blood control 5.1.

As for “TFPI: all exogenous TFPI in the examples is the TFPI analog ala-TFPI (SEQ ID NO:2), tifacogin”, in the test with E. coli O18:K1:H7 [1] (4 hours), the “activity against O18ac:K1:H7 E. coli strain in blood” value (“activity … in blood” for short) is reported as “no activity”. For the same molecule, the “bacterial killing activity (effect on bacterial growth)” value in the test on E. coli O18:K1:H7 [1] is “did not exhibit a similar activity”. The CFU in the test with E. coli O18:K1:H7 [1] (Table 1, TFPI control (100 nM Tifacogin), 3000 CFU/200 μl, 4 hours, blood control 5.1) is 5.2. The “CFU (Range)” value in the test on E. coli O18:K1:H7 [1] (Table 4, in blood, TFPI control) is 5.2; with E. coli O18:K1:H7 [2] (TFPI control) it was 6.2.

As to “NFQRKEKREVIYKVKTKIKAMR (homo sapiens) [Peptide #2, scrambled control peptide, aas 255-276 scramble, reference compound]”, the CFU in the test with E. coli O18:K1:H7 [1] (setting [4]) is 5.3. The same molecule gave a CFU in the test on E. coli O18:K1:H7 [1] (setting [5]) of 5.4. In the test on E. coli O18:K1:H7 [1] (3 μM), the “CFU 1 hour” value is 3.4, the “CFU 3 hours” value was determined as 4.3 and the “CFU 5 hours” value is recorded as 5.2. Moreover, the “bacterial killing activity in serum (rank)” value in the test on E. coli O18:K1:H7 [3] was “inactive”.

Regarding “GFIQRISKGGLIKTKRKRKKQRVKIAYEEIFVKNM (homo sapiens) [Peptide #5, TFPI aas 242-276]”, the “activity … in blood” value in the test on E. coli O18:K1:H7 [1] (4 hours) is given as “similar, but slightly reduced”. Further, the CFU in the test with E. coli O18:K1:H7 [1] (Table 2, peptide 10 nM, blood control 3.5) came out at 4.1; in the test on E. coli O18:K1:H7 [1] (Table 2, peptide 100 nM, blood control 3.5) it was 2.1.

In the case of “TKRKRKKQRVKIAYEEIFVKNM (homo sapiens) [Peptide #1, TFPI aas 255-276, the 22 C-terminal amino acids of TFPI]”, the “activity … in blood” value in the test with E. coli O18:K1:H7 [1] (4 hours) is “active”. Besides, the entries for the “bacterial survival (outgrowth of bacterial colonies)” value in the test with E. coli O18:K1:H7 [1] (300 nM of peptide) and in the test with E. coli O18:K1:H7 [1] were “killed all bacteria” and “dose-dependently reduced bacterial survival”, respectively. Besides, the CFU is 5.2 with E. coli O18:K1:H7 [1] (setting [4]) and 1.1 in the test with E. coli O18:K1:H7 [1] (setting [5]). Besides, the “CFU (Range)” value in the test on E. coli O18:K1:H7 [1] (setting [6]) is given as 1.1 (0.4-1.2); in the test on E. coli O18:K1:H7 [1] (Table 9, peptide 3 μm, Heparin, 3 U/mL), 5.5; in the test with E. coli O18:K1:H7 [1] (Table 9, peptide 3 μm, LMW heparin, 0.3 U/mL) it was 4.7 (4.5-5.1); with E. coli O18:K1:H7 [1] (Table 9, peptide 3 μm, LMW heparin, 3 U/mL), 5.3; with E. coli O18:K1:H7 [1] (Table 9, peptide 3 μm, no heparin, blood alone 4.9), 1.2 (N.D.-1.4); in the test with E. coli O18:K1:H7 [2] (peptide 3 μM), 5.6. In addition, the “CFU 1 hour” value in the test on E. coli O18:K1:H7 [1] (300 nM) and in the test with E. coli O18:K1:H7 [1] (3 μM) was 3.4 each time. The “CFU 3 hours” value in the test on E. coli O18:K1:H7 [1] (300 nM) is 4.2; in the test on E. coli O18:K1:H7 [1] (3 μM), 1.2. Besides, the entries for the “CFU 5 hours” value in the test on E. coli O18:K1:H7 [1] (300 nM) and in the test on E. coli O18:K1:H7 [1] (3 μM) were 4.2 and 0.2, respectively. Moreover, the “bacterial killing activity with un-fractionated heparin” value in the test with E. coli O18:K1:H7 [1] (peptide 3 μm, un-fractionated heparin at 0.3 U/ml, data not shown) was “partial loss of bacterial killing activity”. In addition, the “effect of LPS on cytokine production (IL-6)” value in the test with IL-6 secretion is “completely reversed the effect of LPS on cytokine production”. In addition, the “bacterial killing activity in serum (rank)” value in the test with E. coli O18:K1:H7 [3] is reported as “greatly reduced activity”.

As to “LLGDFFRKSKEKIGKEFKRIVQRIKDFLRNLVPRTES [Peptide #4, reference compound]”, the CFU in the test on E. coli O18:K1:H7 [1] (setting [4]) was 4.9. The molecule also yielded a CFU in the test on E. coli O18:K1:H7 [1] (setting [5]) of 1.3. Besides, the “CFU (Range)” value in the test with E. coli O18:K1:H7 [1] (setting [6]) is listed as 1.3 (1.3-1.4). Besides, in the test on E. coli O18:K1:H7 [1] (300 nM), the “CFU 1 hour” value is given as 3.3, the “CFU 3 hours” value is given as 3.9 and the “CFU 5 hours” value came out at 3.1. In addition, in the test with E. coli O18:K1:H7 [1] (3 μM), the “CFU 1 hour” value was 3.1, the “CFU 3 hours” value was 3.4 and the “CFU 5 hours” value is reported as 1.2. In the test with E. coli O18:K1:H7 [2] (3000 nM), the “inhibition of bacteria in the absence of blood” value is “full inhibition of bacteria”.

Turning to Heparin [reference compound], in the test with E. coli O18:K1:H7 [1] (Table 9, blood alone control with Heparin, 3 U/mL, no peptide), the “CFU (Range)” value is 5.4 (5.3-5.4).

B1: Cathepsin G: protease used to digest TFPI, tested alone as negative control at 400 nM (protein, UniProt P08311 21-244, looked up)
Cathepsin G: IIGGRESRPHSRPYMAYLQIQSPAGQSRCGGFLVREDFVLTAAHCWGSNINVTLGAHNIQRRENTQQHITARRAIRHPQYNQRTIQNDIMLLQLSRRVRRNRNVNPVALPRAQEGLRPGTLCTVAGWGRVSMRRGTDTLREVQLRVQRDRQCLRIFGSYDPRRQICVGDRRERKAAFKGDSGGPLLCNNVAHGIVSYGKSSGVPPEVFTRVSSFLPWIRTTMRS
For the molecule B1, in the test with E. coli O18:K1:H7 [1], the “bacterial killing activity (effect on bacterial growth)” value is “did not exhibit a similar activity”.
